Experimental data reported in PMC10743653, “Combined In Silico and In Vitro Analyses to Assess the Anticancer Potential of Thiazolidinedione–Thiosemicarbazone Hybrid Molecules” (International Journal of Molecular Sciences, 2023).

Tests used:
[1] = Ferric-reducing antioxidant power (FRAP) assay
Description: Antioxidant activity is a complex procedure, usually happening through several multiple or predominant chemical mechanisms (i.e., hydrogen atom transfer (HAT), single electron transfer (SET), and the ability to chelate transition metals), and it is influenced by many factors, which cannot be fully described with one single method. Therefore, it is important to perform more than one type of measurement to take into account the various mechanisms of antioxidant action. In this study, to assess the antioxidant activity of TZD–TSCs 2–5, two complementary tests were used: a DPPH (2,2-diphenyl-1-picrylhydrazyl) free radical-scavenging ability assay, that detects the HAT and SET mechanisms, and a FRAP (ferric reducing antioxidant power) assay, that prefers the […] mechanism. The antioxidant powers of 2–5 were compared to standard antioxidants, such as the water-soluble synthetic analogue of vitamin E (Trolox) and ascorbic acid (vitamin C).
Each compound concentration (25, 75, 150, and 200 μg/mL, respectively) was dissolved in Milli-Q water and mixed with an equal volume of 0.2 M sodium phosphate buffer (pH 6.6) and 1% potassium ferricyanide. The mixture was incubated for 30 min at 37 °C. Thereafter, 10% trichloroacetic acid (w/v) was added and the mixture was centrifuged at 1000 g for 5 min. One mL of the upper layer was mixed with an equal volume of Milli-Q water and 0.1% ferric chloride. The absorbance was read at 700 nm using an EL800 Universal Microplate Reader (BioTek Instruments, Winooski, VT, USA). Ascorbic acid (0–150 μg/mL) was used as a positive control.

HT29 cells = assay: Nitric oxide measurement (Griess), HT29; type: cell-based, human; conditions: HT29, 200 μg/mL
Procedure: Nitrate, i.e., a stable end product of NO, was measured in culture supernatants with a spectrophotometric method based on the Griess reaction. Culture supernatants were collected from the cell cultures treated with specific concentrations of the tested compounds (25, 75, 150, and 200 μg/mL, respectively). Briefly, 100 μL of the culture supernatant was placed in 96-well flat-bottomed plates in triplicate and incubated with 100 μL of Griess reagent (1% sulfanilamide/0.1% N-(1-naphthyl)ethylenediamine dihydrochloride) in 3% H3PO4 at room temperature for 10 min. The optical density was measured at 550 nm using a microplate reader. A standard curve was prepared using 0.5–25 μM sodium nitrite (NaNO2) for calibration.

CCD 841 CoTr cells = assay: MTT assay, normal colon epithelial cells; type: cell-based; conditions: Homo sapiens, CCD 841 CoTr (noncancerous), 24 h treatment, mean ± SD
Procedure: The effects of TZD–TSCs 2–5 on the cellular viability of a panel of cell lines were investigated through an 3-(4,5-dimethylthiazol-2-yl)-2,5-diphenyl-2H-tetrazolium bromide (MTT) assay, following a 24 h treatment with the compounds. The panel consisted of three solid tumor cells: T98G (glioblastoma multiforme), HepG2 (hepatocellular carcinoma, epithelial), and HT29 (colon adenocarcinoma, epithelial), as well as noncancerous cells CCD 841 CoTr (normal colon, epithelial).
Primary single dose screenings of TZD–TSCs 2–5 were performed at a concentration of 200 μg/mL, and those that elicited a greater than 80% inhibition of cell proliferation were analyzed at several concentrations, to find their half-maximal inhibitory concentration (IC50). The IC50 values, reported as the mean ± SD in Table 2, indicate the concentration of the tested compound that inhibits the growth/viability of the cancer cell population by 50%. In this specific case of an MTT assay, which measures the activity of mitochondrial dehydrogenases (as an indicator of cell viability), the IC50 values stand for the concentration that inhibits the metabolic activity of cells by 50%.
Human colon adenocarcinoma cells, HT29 (ATCC no. HTB-38), derived from a grade I tumor, were cultured in roswell park memorial institute Medium (RPMI) 1640 medium, supplemented with 10% fetal calf serum (FCS) (GibcoTM, Paisley, UK) and antibiotics (100 U/mL penicillin and 100 μg/mL streptomycin) (Sigma, St. Louis, MO), at 37 °C in a humidified atmosphere with 5% CO2. Human normal colon epithelial cells, CCD 841 CoTr (ATCC no. CRL-1807), were cultured in RPMI 1640 + dulbecco’s modified eagle medium (DMEM) (1:1) medium (Sigma, St. Louis, MO), supplemented with 10% FCS and antibiotics, at 34 °C in a 5% CO2/95% air atmosphere. Human glioblastoma T98G cells were cultured in Dulbecco’s Modified Eagle’s Medium (DMEM) (Sigma Aldrich, St. Louis, MO, USA), supplemented with 10% fetal bovine serum (FBS), penicillin (100 U/mL), and streptomycin (100 μg/mL). Human hepatocellular carcinoma cells, HepG2, were maintained in Eagle’s Minimum Essential Medium, supplemented with 10% FBS, penicillin (100 U/mL), and streptomycin (100 μg/mL).
After 24 h of incubation of the cells with the tested compounds in 100 μL of culture medium, MTT solution (5 mg/mL, 25 μL/well) was added and incubated for an additional 3 h. The purple crystals of formazan which formed in the medium were solubilized overnight in 10% sodium dodecyl sulphate (SDS) in a 0.01 M HCl mixture. The product was quantified spectrophotometrically by measuring its absorbance at 570 nm using an Emax Microplate Reader (Molecular Devices Corporation, Menlo Park, CA, USA).

T98G cells = assay: ECM cell invasion assay (colorimetric), T98G; type: cell-based, human
Procedure: The anti-invasion effects of 2 and 3 were examined using a Cell Invasion Assay Kit (ECM550, CHEMICON—Millipore Co., Billerica, MA, USA). In brief, 10^5 tumor cells were suspended in medium with 10% FBS and plated into the upper chamber, containing 8 μm pore size polycarbonate membrane precoated with ECMatrix, followed by filling the lower chamber with the same medium, enriched with the investigated compounds. Afterwards, cells were incubated for 24 h and allowed to invade towards the bottom chamber (with medium + 10% FBS). The non-invading cells on the upper membrane surface were removed with a cotton swab and the invasive cells, i.e., cells attached to the lower membrane surface, were stained with 0.1% crystal violet. For colorimetric quantitation, the stained cells were dissolved in 10% acetic acid (200 μL/well) and the obtained solution was transferred to a 96-well plate for spectrometric measurements, at a wavelength of 560 nm.

Row | Structure (SMILES) | FRAP reduction value corresponding to concentration of ascorbic acid ([1]; compound at 25 μg/mL) [µg/mL] | FRAP reduction value corresponding to concentration of ascorbic acid ([1]; compound at 75 μg/mL) [µg/mL] | FRAP reduction value corresponding to concentration of ascorbic acid ([1]; compound at 150 μg/mL) [µg/mL] | FRAP reduction value corresponding to concentration of ascorbic acid ([1]; compound at 200 μg/mL) [µg/mL] | NO production, [NO2^−] (HT29 cells) [µM] | IC50 (CCD 841 CoTr cells) [µM] | Invasion through artificial ECM model (T98G cells; 1/10 IC50 to IC50, 24 h) | Invasion through artificial ECM model (T98G cells; 1/10 of the IC50 doses, 24 h)
1 | O=C(C=C1SC(=O)NC1=O)Oc1ccccc1C=NNC(=S)Nc1ccccc1Cl [TZD–TSC 2] | 2.43 | 4.32 | 3.51 | 7.84 | 0.272 | 44.6 ± 2.91 | exhibited inhibitory effects | statistically significantly inhibited
2 | O=C(C=C1SC(=O)NC1=O)Oc1ccccc1C=NNC(=S)Nc1cccc(Cl)c1 [TZD–TSC 3] | 0.81 | 0.27 | 1.08 | 1.89 | 0.201 | 100 ± 4.82 | exhibited inhibitory effects | statistically significantly inhibited
